# Measured values from patent US20150105252A1, “SUBSTITUTED PYRAZOLES AS HERBICIDES” (E I DU PONT DE NEMOURS AND COMPANY, priority 2013, published 2015).
# Tests used:
# [1] = test system: bromegrass, downy; experiment: Test D preemergence; format: in vivo, Bromus tectorum; conditions: scale 0 to 100
# Procedure, shortened: (§1)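 Postemergence activity was tested on plants at the 1- to 4-leaf stage (2–18 cm) grown in peat-based medium, and preemergence activity on seeds in silt loam, with chemicals in a surfactant-containing non-phytotoxic solvent. Controlled-environment growth lasted 14–21 days before visual 0–100 scoring.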
# [2] = test system: lambsquarters; experiment: Test D preemergence; format: in vivo, Chenopodium album; conditions: scale 0 to 100
# Procedure, shortened: as §1
# [3] = test system: speedwell; experiment: Test D preemergence; format: in vivo, Veronica persica; conditions: scale 0 to 100
# Procedure, shortened: as §1
# [4] = test system: blackgrass; experiment: Test D postemergence; format: in vivo, Alopecurus myosuroides; conditions: scale 0 to 100
# Procedure, shortened: as §1
# [5] = test system: barley, spring; experiment: Test D postemergence; format: in vivo, Hordeum vulgare; conditions: scale 0 to 100
# Procedure, shortened: as §1
# [6] = test system: barley, winter; experiment: Test D postemergence; format: in vivo, Hordeum vulgare; conditions: scale 0 to 100
# Procedure, shortened: as §1
# [7] = test system: mustard, wild; experiment: Test D postemergence; format: in vivo, Sinapis arvensis; conditions: scale 0 to 100
# Procedure, shortened: as §1
# [8] = test system: velvetleaf; experiment: Test F preemergence; format: in vivo, Abutilon theophrasti
# Procedure, shortened: (§2)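 Seeds were sown in silt loam and sprayed preemergence with compound in a non-phytotoxic solvent mixture containing surfactant. Postemergence sprays went onto plants 2 to 18 cm tall (1- to 4-leaf stage). After 14 to 21 days in a greenhouse, injury was rated visually against untreated controls, 0 (no effect) to 100 (complete control).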
# [9] = test system: large crabgrass; experiment: Test F preemergence; format: in vivo, Digitaria sanguinalis
# Procedure, shortened: as §2
# [10] = test system: fall panicum; experiment: Test F preemergence; format: in vivo, Panicum dichotomiflorum
# Procedure, shortened: as §2
# [11] = test system: green foxtail; experiment: Test F preemergence; format: in vivo, Setaria viridis
# Procedure, shortened: as §2
# [12] = test system: southern sandbur; experiment: Test F preemergence; format: in vivo, Cenchrus echinatus
# Procedure, shortened: as §2
# [13] = test system: kochia; experiment: Test F preemergence; format: in vivo, Kochia scoparia
# Procedure, shortened: as §2
# [14] = test system: yellow nutsedge; experiment: Test F preemergence; format: in vivo, Cyperus esculentus
# Procedure, shortened: as §2
# [15] = Preemergence, 62 g ai/ha, scale 0 to 100
# [16] = Preemergence, 125 g ai/ha, scale 0 to 100
# [17] = preemergence, 8 g ai/ha, scale 0 to 100, 100 is complete control
# [18] = preemergence, scale 0 to 100, 100 is complete control
smiles,measurement,setting,value
CCOc1cc(C(=O)NC(C)C)nn1Cc1ccnc(C(F)(F)F)c1 [Compound 188],"Plant response rating, Bromegrass, Downy",[1]; 31 g ai/ha,20
same,"Plant response rating, Bromegrass, Downy",[1]; 62 g ai/ha,75
same,"Plant response rating, Bromegrass, Downy",[1]; 125 g ai/ha,85
same,"Plant response rating, Bromegrass, Downy",[1]; 250 g ai/ha,100
same,"Plant response rating, Lambsquarters",[2]; 62 g ai/ha,100
same,"Plant response rating, Lambsquarters",[2]; 125 g ai/ha,100
same,"Plant response rating, Lambsquarters",[2]; 250 g ai/ha,100
same,"Plant response rating, Speedwell",[3]; 62 g ai/ha,100
same,"Plant response rating, Speedwell",[3]; 125 g ai/ha,100
same,"Plant response rating, Speedwell",[3]; 250 g ai/ha,100
same,Blackgrass plant response rating,"[4]; Postemergence, 31 g ai/ha",15
same,Blackgrass plant response rating,"[4]; Postemergence, 125 g ai/ha",35
same,Blackgrass plant response rating,"[4]; Postemergence, 250 g ai/ha",45
same,Blackgrass plant response rating,"[4]; postemergence, 62 g ai/ha",15
same,"Barley, Spring plant response rating","[5]; Postemergence, 31 g ai/ha",15
same,"Barley, Spring plant response rating","[5]; Postemergence, 125 g ai/ha",25
same,"Barley, Spring plant response rating","[5]; Postemergence, 250 g ai/ha",65
same,"Barley, Spring plant response rating","[5]; postemergence, 62 g ai/ha",15
same,"Barley, Winter plant response rating","[6]; Postemergence, 31 g ai/ha",15
same,"Barley, Winter plant response rating","[6]; Postemergence, 125 g ai/ha",40
same,"Barley, Winter plant response rating","[6]; Postemergence, 250 g ai/ha",65
same,"Barley, Winter plant response rating","[6]; postemergence, 62 g ai/ha",15
same,"Mustard, Wild plant response rating","[7]; Postemergence, 31 g ai/ha",50
same,"Mustard, Wild plant response rating","[7]; Postemergence, 125 g ai/ha",60
same,"Mustard, Wild plant response rating","[7]; Postemergence, 250 g ai/ha",85
same,"Mustard, Wild plant response rating","[7]; postemergence, 62 g ai/ha",50
same,"Plant response rating, Velvetleaf",[8]; [15],100
same,"Plant response rating, Velvetleaf",[8]; [16],100
same,"Plant response rating, Velvetleaf",[8]; [17],0
same,"Plant response rating, Velvetleaf",[8]; [18],20
same,"Plant response rating, Large Crabgrass",[9]; [15],100
same,"Plant response rating, Large Crabgrass",[9]; [16],100
same,"Plant response rating, Large Crabgrass",[9]; [17],90
same,"Plant response rating, Large Crabgrass",[9]; [18],100
same,"Plant response rating, Fall Panicum","[10]; Preemergence, 16 g ai/ha, scale 0 to 100",100
same,"Plant response rating, Fall Panicum",[10]; [15],100
same,"Plant response rating, Fall Panicum",[10]; [16],100
same,"Plant response rating, Fall Panicum",[10]; [17],75
same,"Plant response rating, Green Foxtail",[11]; [15],100
same,"Plant response rating, Green Foxtail",[11]; [16],100
same,"Plant response rating, Green Foxtail",[11]; [17],5
same,"Plant response rating, Southern Sandbur",[12]; [15],65
same,"Plant response rating, Southern Sandbur",[12]; [16],100
same,"Plant response rating, Southern Sandbur",[12]; [17],0
same,"Plant response rating, Kochia",[13]; [15],98
same,"Plant response rating, Kochia",[13]; [16],100
same,"Plant response rating, Kochia",[13]; [17],0
same,"Plant response rating, Yellow Nutsedge",[14]; [15],15
same,"Plant response rating, Yellow Nutsedge",[14]; [16],70
same,"Plant response rating, Yellow Nutsedge",[14]; [17],0
